Substitutions are numbered along the chain they refer to.

In one experiment the target is T1, Kv12.1(H462Y) (Homo sapiens, UniProt Q96L42, H462Y).
T1 sequence (Q96L42 1-1107 H462Y): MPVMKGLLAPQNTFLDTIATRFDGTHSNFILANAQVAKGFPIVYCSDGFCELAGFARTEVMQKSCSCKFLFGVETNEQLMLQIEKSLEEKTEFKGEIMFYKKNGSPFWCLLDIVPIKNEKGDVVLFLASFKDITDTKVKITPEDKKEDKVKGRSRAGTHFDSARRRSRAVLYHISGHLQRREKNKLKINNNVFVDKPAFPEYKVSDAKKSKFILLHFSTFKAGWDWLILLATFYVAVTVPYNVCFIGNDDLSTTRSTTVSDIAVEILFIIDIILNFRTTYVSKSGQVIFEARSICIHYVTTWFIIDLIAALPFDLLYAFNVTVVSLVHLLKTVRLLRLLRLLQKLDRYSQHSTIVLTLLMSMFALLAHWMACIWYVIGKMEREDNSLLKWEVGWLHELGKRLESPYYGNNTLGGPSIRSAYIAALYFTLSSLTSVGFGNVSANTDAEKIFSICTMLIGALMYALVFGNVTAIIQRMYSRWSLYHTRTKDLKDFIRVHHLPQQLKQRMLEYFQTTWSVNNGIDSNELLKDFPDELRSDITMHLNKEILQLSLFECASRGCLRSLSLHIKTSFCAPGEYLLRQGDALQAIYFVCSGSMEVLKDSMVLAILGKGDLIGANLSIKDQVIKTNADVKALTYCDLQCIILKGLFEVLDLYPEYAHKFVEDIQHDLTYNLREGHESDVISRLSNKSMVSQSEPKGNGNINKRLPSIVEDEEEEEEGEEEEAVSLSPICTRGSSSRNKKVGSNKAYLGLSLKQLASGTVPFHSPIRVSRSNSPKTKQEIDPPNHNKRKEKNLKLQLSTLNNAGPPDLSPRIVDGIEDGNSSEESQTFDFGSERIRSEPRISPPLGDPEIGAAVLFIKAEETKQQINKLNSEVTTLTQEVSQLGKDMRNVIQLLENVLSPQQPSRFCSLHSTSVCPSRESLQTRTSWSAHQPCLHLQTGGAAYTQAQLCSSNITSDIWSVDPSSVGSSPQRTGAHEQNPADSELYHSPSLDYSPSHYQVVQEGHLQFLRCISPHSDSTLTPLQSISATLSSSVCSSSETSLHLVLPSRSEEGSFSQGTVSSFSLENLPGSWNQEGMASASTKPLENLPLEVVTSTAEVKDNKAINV
Nature of the experiment: whole-cell patch clamp in transfected CHO cells. The format is cell-based. A general note: The patch-clamp technique gives a direct electrical read-out from membranes.

For another experiment, the target named is T2, Kv12.1 (Elk1) (Homo sapiens, UniProt Q96L42).
T2 sequence (Q96L42 1-1107): T1 sequence (Q96L42 1-1107 H462Y) with Y462H
The experiment can be described thus: whole-cell patch clamp in transfected CHO cells. It is filed as cell-based.

As usually defined, the IC50 is the point on the concentration scale where inhibition reaches its midpoint. Low values mean greater potency, high ones weaker potency. On to `C=C[C@H]1C[N@@]2CC[C@H]1C[C@H]2[C@H](O)c1ccnc2ccc(OC)cc12` [quinine], for which the IC50 was found to be 56 µM at Kv12.1(H462Y) and 970 µM at Kv12.1 (Elk1).

Source of the values: article PMC6609544 (British Journal of Pharmacology, 2019).
